Target: recombinant human nicotinic acid receptor (NAR) (Homo sapiens, UniProt Q8TDS4)
Assay: Nicotinic Acid Receptor Assay: inhibition of forskolin-stimulated cAMP accumulation in CHO cells (MesoScale Discovery cAMP kit)
Format: cell-based
Details: CHO cells expressing recombinant human NAR; forskolin-stimulated cAMP; read-out: NA EC50 camp
Procedure: The nicotinic acid receptor agonist activity of the inventive compounds was determined by following the inhibition of forskolin-stimulated cAMP accumulation in cells using the MesoScale Discovery cAMP detection kit following the manufacture's protocol. Briefly, Chinese Hamster Ovary (CHO) cells expressing recombinant human nicotinic acid receptor (NAR) were harvested enzymatically, washed 1× in phosphate buffered saline (PBS) and resuspended in PBS containing 0.5 mM IBMX at 3×10^6 cells/mL. Ten μL of cell suspension was added to each well of a 384-well plate which contained 10 μL of test compounds. Test compounds were diluted with PBS containing 6 μM of forskolin. Plates were incubated for 30 minutes at room temperature after the addition of cells. Lysis buffer containing cAMP-Tag was added to each well (10 μL/well) as per the manufacturer's protocol. Plates were then incubated from 45 minutes to overnight. Prior to reading, 10 μL of read buffer was added to each well, and the plate was read in a Sector 6000 plate imager. The signal was converted to cAMP concentration using a standard curve run on each plate.

Chain of recombinant human nicotinic acid receptor (NAR) (Q8TDS4 whole entry): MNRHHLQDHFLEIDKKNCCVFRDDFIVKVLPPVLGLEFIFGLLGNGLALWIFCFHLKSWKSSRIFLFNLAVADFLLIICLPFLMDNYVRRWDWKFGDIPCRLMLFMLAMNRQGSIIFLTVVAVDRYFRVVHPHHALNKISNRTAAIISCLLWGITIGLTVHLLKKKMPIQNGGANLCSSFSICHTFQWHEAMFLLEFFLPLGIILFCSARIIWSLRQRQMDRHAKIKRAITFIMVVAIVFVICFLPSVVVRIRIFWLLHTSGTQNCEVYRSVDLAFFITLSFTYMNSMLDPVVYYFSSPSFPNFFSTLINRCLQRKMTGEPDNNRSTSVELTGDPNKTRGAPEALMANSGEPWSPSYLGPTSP

Compound | EC50
O=c1[nH]c(=O)c2c(CC3C[C@@H]4CC[C@H]3C4)cc(=O)oc2[nH]1 (some centres unmarked) [Compound 201] | > 1000 nM
N#Cc1ccc(-c2c(CCC3CCC3)c3c(=O)[nH]c(=O)[nH]c3oc2=O)cc1 [Compound 702] | > 1000 nM
CCc1cc(=O)oc2nc(OCCN(C)C)[nH]c(=O)c12 [Compound 652] | 0.001 to 100 nM
CCc1cc(=O)oc2nc(OCC#CCN(C)C)[nH]c(=O)c12 [Compound 641] | 0.001 to 100 nM
O=c1[nH]c(=O)c2c(C3CCCCC3)cc(=O)oc2[nH]1 [Compound 212] | 100 to 1000 nM
CCCCc1cc(=O)oc2nc(OCC#CC(O)CC)[nH]c(=O)c12 (centres unmarked) [Compound 679] | 0.001 to 100 nM
CCc1cc(=O)oc2nc(OCc3snnc3-c3ccccc3)[nH]c(=O)c12 [Compound 532] | 100 to 1000 nM
CCCCc1c(-c2ccc(Cl)cc2)c(=O)oc2[nH]c(=O)[nH]c(=O)c12 [Compound 705] | > 1000 nM
N#CC1(CCCc2cc(=O)oc3[nH]c(=O)[nH]c(=O)c23)CC1 [Compound 294] | 100 to 1000 nM
CCc1cc(=O)oc2nc(OCc3ccc(Br)cn3)[nH]c(=O)c12 [Compound 536] | 100 to 1000 nM
CCCC(C)c1cc(=O)oc2[nH]c(=O)[nH]c(=O)c12 (centres unmarked) [Compound 218] | 100 to 1000 nM
CCc1cc(=O)oc2nc(OC[C@H]3CN([C@H](C)c4ccccc4)C(=O)O3)[nH]c(=O)c12 [Compound 613] | 100 to 1000 nM
CCc1cc(=O)oc2nc(OCCS(=O)(=O)c3ccc(Cl)cc3)[nH]c(=O)c12 [Compound 591] | 0.001 to 100 nM
O=c1[nH]c(=O)c2c(CCCOCc3ccccc3)cc(=O)oc2[nH]1 [Compound 264] | > 1000 nM
CCc1cc(=O)oc2nc(OCC3CCCO3)[nH]c(=O)c12 (centres unmarked) [Compound 601] | > 1000 nM
CCc1cc(=O)oc2nc(OCc3cc4cc(C)ccc4s3)[nH]c(=O)c12 [Compound 654] | 0.001 to 100 nM
CCc1cc(=O)oc2nc(OCc3ccc(-n4cccn4)cc3)[nH]c(=O)c12 [Compound 624] | 100 to 1000 nM
O=c1[nH]c(=O)c2c(C3CCCC3)cc(=O)oc2[nH]1 [Compound 227] | > 1000 nM
O=c1[nH]c(=O)c2c(CC3CCCC(C(F)(F)F)C3)cc(=O)oc2[nH]1 (centres unmarked) [Compound 213] | 100 to 1000 nM
O=c1cc(CCCCC2CC2)c2c(=O)[nH]c(=O)n(C3CCC3)c2o1 [Compound 210] | 100 to 1000 nM
CCc1cc(=O)oc2nc(OC[C@@H](OC)c3ccccc3)[nH]c(=O)c12 [Compound 618] | 100 to 1000 nM
CCc1cc(=O)oc2nc(OCCOc3c(OC)cccc3OC)[nH]c(=O)c12 [Compound 622] | 100 to 1000 nM

Compound | EC50
CCc1cc(=O)oc2nc(OCc3cc(Cl)cc(Cl)c3)[nH]c(=O)c12 [Compound 503] | 100 to 1000 nM
CCc1cc(=O)oc2nc(OCC(=O)N(CC)CC)[nH]c(=O)c12 [Compound 621] | 100 to 1000 nM
CCOCCCc1cc(=O)oc2[nH]c(=O)[nH]c(=O)c12 [Compound 239] | 0.001 to 100 nM
CCCOCCCc1cc(=O)oc2[nH]c(=O)[nH]c(=O)c12 [Compound 270] | 0.001 to 100 nM
CC#CCCc1cc(=O)oc2[nH]c(=O)[nH]c(=O)c12 [Compound 217] | > 1000 nM
CCc1cc(=O)oc2nc(OC3CCSCC3)[nH]c(=O)c12 [Compound 605] | > 1000 nM
CCc1cc(=O)oc2nc(OCc3ccccc3-c3cccc(C(N)=O)c3)[nH]c(=O)c12 [Compound 585] | 100 to 1000 nM
O=c1cc(Cc2ccccc2)c2c(=O)[nH]c(OCc3ccccc3)nc2o1 [Compound 627] | > 1000 nM
CCc1cc(=O)oc2nc(OCc3ccc(C(F)(F)F)cn3)[nH]c(=O)c12 [Compound 545] | 100 to 1000 nM
CC1CCC(Cc2cc(=O)oc3[nH]c(=O)n(C4CCC4)c(=O)c23)CC1 (centres unmarked) [Compound 246] | > 1000 nM
O=c1[nH]c(=O)c2c(CCCOC3CCCCC3)cc(=O)oc2[nH]1 [Compound 287] | > 1000 nM
CCc1cc(=O)oc2nc(OCc3ccc(C(F)(F)F)cc3C(F)(F)F)[nH]c(=O)c12 [Compound 514] | > 1000 nM
CCc1cc(=O)oc2nc(OCc3ccc(-c4ccccc4)cc3)[nH]c(=O)c12 [Compound 517] | > 1000 nM
CCc1cc(=O)oc2nc(OCc3ccccc3C#N)[nH]c(=O)c12 [Compound 611] | > 1000 nM
O=c1[nH]c(=O)c2c(CCC3CCC3)c(-c3ccc(F)cc3)c(=O)oc2[nH]1 [Compound 700] | > 1000 nM
CCCCCCc1cc(=O)oc2nc(ONC(=O)OCC)[nH]c(=O)c12 [Compound 692] | 0.001 to 100 nM
CCOc1ccc(-c2c(CCC3CCC3)c3c(=O)[nH]c(=O)[nH]c3oc2=O)cc1 [Compound 703] | > 1000 nM
O=c1[nH]c(=O)c2c(CCCOC3CCC3)cc(=O)oc2[nH]1 [Compound 290] | 100 to 1000 nM
CCc1cc(=O)oc2nc(OCC#CC(C)O)[nH]c(=O)c12 (centres unmarked) [Compound 644] | 0.001 to 100 nM
CCc1cc(=O)oc2nc(OCCCOc3ccccc3)[nH]c(=O)c12 [Compound 596] | 100 to 1000 nM
O=c1[nH]c(=O)c2c(CCC3CCC3)c(-c3ccccc3)c(=O)oc2[nH]1 [Compound 699] | > 1000 nM
CCc1cc(=O)oc2nc(OCc3ccc(Cl)cc3OC)[nH]c(=O)c12 [Compound 515] | 100 to 1000 nM

Same assay, conditions: NA EC50 camp (nM), CHO cells expressing recombinant human NAR; forskolin-stimulated cAMP

Compound | EC50
CCC#CCOc1nc2oc(=O)cc(Cc3ccccc3)c2c(=O)[nH]1 [Compound 615] | 100 to 1000 nM
CCc1cc(=O)oc2nc(OCCOC)[nH]c(=O)c12 [Compound 524] | 100 to 1000 nM
CCc1cc(=O)oc2nc(OCc3cccc(-c4cccc(C#N)c4)c3)[nH]c(=O)c12 [Compound 567] | 100 to 1000 nM
CCOCCOc1nc2oc(=O)cc(CC)c2c(=O)[nH]1 [Compound 580] | > 1000 nM

Same assay, conditions: NA EC50 camp, inhibition of forskolin-stimulated cAMP accumulation, CHO cells expressing recombinant human NAR

Compound | EC50
CC1(CCCc2cc(=O)oc3nc(C(F)F)[nH]c(=O)c23)CC1 [Compound 811] | 22 nM
CCCCCc1cc(=O)oc2nc(C(F)F)[nH]c(=O)c12 [Compound 743] | 212 nM

Same assay, conditions: inhibition of forskolin-stimulated cAMP accumulation, CHO cells expressing recombinant human NAR; read-out: NA EC50 camp

Compound | EC50
CSCCCc1cc(=O)oc2nc(CF)[nH]c(=O)c12 [Compound 751] | 487 nM
CCn1c(=O)[nH]c2oc(=O)cc(CCCC3CC3)c2c1=O [Compound 782] | 94 nM
CCCCc1cc(=O)oc2c1c(=O)[nH]c(=O)n2CF [Compound 813] | 256 nM
COn1c(=O)nc(OCCF)c2c(CCC3CCC3)cc(=O)oc21 [Compound 826] | 3250 nM
O=c1cc(CCC2CCCC2)c2c(=O)[nH]c(C(F)(F)F)nc2o1 [Compound 763] | 7730 nM
COCCn1c(=O)[nH]c2oc(=O)cc(CCC3CC3)c2c1=O [Compound 800] | > 10000 nM
COn1c(=O)[nH]c2oc(=O)cc(CCC3CCCC3)c2c1=O [Compound 772] | 39 nM
O=c1[nH]c(=O)c2c(CC3CC3)cc(=O)oc2[nH]1 [Compound 117] | 155 nM
CCCCc1cc(=O)oc2c1c(=O)[nH]c(=O)n2O [Compound 805] | 2060 nM
O=c1cc(CCCC2CC2)c2c(=O)n(C3CCC3)c(=O)[nH]c2o1 [Compound 784] | 17.9 nM
CC1CCC(Cc2cc(=O)oc3[nH]c(=O)[nH]c(=O)c23)CC1 (centres unmarked) [Compound 127] | 57.3 nM
CCCCc1cc(=O)oc2[nH]c(=O)n(OCc3ccccc3)c(=O)c12 [Compound 799] | > 10000 nM
CCC#CC(C)Oc1nc2oc(=O)cc(CCCC3CC3)c2c(=O)[nH]1 (centres unmarked) [Compound 718] | 162 nM
CCCc1cc(=O)oc2[nH]c(=O)nc(OCF)c12 [Compound 832] | 304 nM
CCc1cc(=O)oc2[nH]c(=O)n(CCF)c(=O)c12 [Compound 819] | 1540 nM
